# Assay results as given in paper PMC3121796 (PLoS ONE, 2011).
# Positions of bridges follow the written chain, without caps; N, C: chain ends. Residues, ends and D or L forms follow the SMILES beside them. No end group written: not given here.
# How the values were obtained:
# [1] = cited from earlier work
# Text: It was reported that the cytoplasm of E. coli cells contains high levels of reduced glutathione (approximately 5 mmole/L); therefore, the potential of ...
# human Nav1.7 (hNav1.7) = molecular target: T1, human Nav1.7 (hNav1.7) (Homo sapiens, UniProt Q15858); assay: whole-cell patch-clamp assay, inhibition of hNav1.7 currents; format: cell-based; conditions: 1 µmole/L toxin, HEK293 cells expressing hNav1.7, depolarization to −10 mV, room temperature, one range given for both toxins
# T1 construct: expressed in transfected cells; host or cells: HEK293
# T1 sequence (Q15858 whole entry): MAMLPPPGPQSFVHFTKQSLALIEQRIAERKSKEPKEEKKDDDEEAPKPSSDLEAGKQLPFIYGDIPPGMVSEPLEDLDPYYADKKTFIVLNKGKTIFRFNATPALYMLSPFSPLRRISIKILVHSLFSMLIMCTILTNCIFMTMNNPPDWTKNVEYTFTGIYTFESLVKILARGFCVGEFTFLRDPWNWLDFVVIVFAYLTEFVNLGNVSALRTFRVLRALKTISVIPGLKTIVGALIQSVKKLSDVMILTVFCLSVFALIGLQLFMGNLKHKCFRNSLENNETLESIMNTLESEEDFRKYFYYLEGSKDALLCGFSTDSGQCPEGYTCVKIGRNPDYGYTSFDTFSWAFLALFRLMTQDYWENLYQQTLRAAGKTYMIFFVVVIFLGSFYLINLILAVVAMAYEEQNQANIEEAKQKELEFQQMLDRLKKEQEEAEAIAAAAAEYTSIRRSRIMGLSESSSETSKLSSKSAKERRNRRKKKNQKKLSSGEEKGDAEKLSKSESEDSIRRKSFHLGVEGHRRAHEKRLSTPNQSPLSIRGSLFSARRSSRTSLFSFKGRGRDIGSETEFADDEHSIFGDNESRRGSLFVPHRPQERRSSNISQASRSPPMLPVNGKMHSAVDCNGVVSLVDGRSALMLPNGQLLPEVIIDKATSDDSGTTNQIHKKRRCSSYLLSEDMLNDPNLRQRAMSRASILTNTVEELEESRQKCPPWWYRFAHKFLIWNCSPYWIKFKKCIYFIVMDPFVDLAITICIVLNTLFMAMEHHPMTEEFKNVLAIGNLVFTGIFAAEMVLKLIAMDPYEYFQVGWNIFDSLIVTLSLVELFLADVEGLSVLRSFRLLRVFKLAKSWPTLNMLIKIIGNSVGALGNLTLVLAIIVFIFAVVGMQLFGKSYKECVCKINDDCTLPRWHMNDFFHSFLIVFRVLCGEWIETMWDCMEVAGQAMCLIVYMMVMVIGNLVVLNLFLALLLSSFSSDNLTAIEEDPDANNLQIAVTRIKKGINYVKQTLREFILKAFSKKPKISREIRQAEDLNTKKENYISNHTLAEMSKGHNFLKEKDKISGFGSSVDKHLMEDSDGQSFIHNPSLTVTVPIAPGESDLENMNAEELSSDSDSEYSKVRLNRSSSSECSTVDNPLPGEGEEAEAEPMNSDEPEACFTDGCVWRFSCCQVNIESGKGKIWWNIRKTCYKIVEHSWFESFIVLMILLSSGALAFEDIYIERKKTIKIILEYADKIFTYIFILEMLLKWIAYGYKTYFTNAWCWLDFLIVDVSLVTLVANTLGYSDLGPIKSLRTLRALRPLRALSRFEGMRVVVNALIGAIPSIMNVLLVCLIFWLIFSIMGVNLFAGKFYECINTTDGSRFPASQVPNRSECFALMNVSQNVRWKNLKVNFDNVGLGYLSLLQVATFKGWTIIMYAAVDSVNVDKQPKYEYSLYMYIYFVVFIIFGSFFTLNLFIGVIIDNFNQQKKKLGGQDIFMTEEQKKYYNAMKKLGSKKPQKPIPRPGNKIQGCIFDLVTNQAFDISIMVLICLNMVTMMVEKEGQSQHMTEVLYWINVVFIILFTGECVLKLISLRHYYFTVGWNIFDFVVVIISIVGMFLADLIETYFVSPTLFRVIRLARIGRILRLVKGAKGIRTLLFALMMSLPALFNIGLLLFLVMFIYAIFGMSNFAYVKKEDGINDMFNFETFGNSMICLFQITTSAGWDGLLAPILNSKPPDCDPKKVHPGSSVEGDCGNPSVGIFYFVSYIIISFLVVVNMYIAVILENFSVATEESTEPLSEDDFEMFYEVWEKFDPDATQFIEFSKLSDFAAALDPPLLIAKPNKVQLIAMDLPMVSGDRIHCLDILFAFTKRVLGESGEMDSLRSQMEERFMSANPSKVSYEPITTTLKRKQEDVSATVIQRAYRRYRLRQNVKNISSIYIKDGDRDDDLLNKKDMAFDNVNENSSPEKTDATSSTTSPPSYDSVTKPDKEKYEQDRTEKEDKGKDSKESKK
molecule,measurement,setting,value
"rHWTX-I (GST or KIS fusion, cytoplasm): earlier rHWTX-I expressed fused with GST or ketosteroid isomerase (KIS) in the cytoplasm of E. coli cells (ACKGVFDACTPGKNECCPNRVCSDKHKWCKWKL; not fully specified; cysteine pairing not given here; UniProt P56676 49-81, looked up)",bioactivity after release by enzyme digestion,"[1]; GST fusion expressed in cytoplasm of E. coli, no disulfide bridge formed, ref [8]",very low bioactivity
same,bioactivity after reduction/renaturation,"[1]; released from GST or KIS fusion protein expressed in cytoplasm of E. coli, after reduction/renaturation treatment, ref [8], [9]",fully restore the bioactivities
same,bioactivity before reduction/renaturation,"[1]; released from GST or KIS fusion protein expressed in cytoplasm of E. coli, before reduction/renaturation treatment, ref [8], [9]",extremely low bioactivity
"rHWTX-I (baculovirus): earlier rHWTX-I expressed in a baculovirus system (ACKGVFDACTPGKNECCPNRVCSDKHKWCKWKL; ends and bridges not checked; cysteine pairing not given here; UniProt P56676 49-81, looked up)",bioactivity of baculovirus-expressed peptide,"[1]; baculovirus system, ref [11]",demonstrated natural bioactivities
"CC(C)C[C@H](NC(=O)[C@H](CCCCN)NC(=O)[C@H](Cc1c[nH]c2ccccc12)NC(=O)[C@H](CCCCN)NC(=O)[C@@H]1CSSC[C@@H]2NC(=O)[C@H](CCC(=O)O)NC(=O)[C@H](CC(N)=O)NC(=O)[C@H](CCCCN)NC(=O)CNC(=O)[C@@H]3CCCN3C(=O)[C@H]([C@@H](C)O)NC(=O)[C@@H]3CSSC[C@H](NC(=O)[C@H](C(C)C)NC(=O)[C@H](CCCNC(=N)N)NC(=O)[C@H](CC(N)=O)NC(=O)[C@@H]4CCCN4C(=O)[C@H](CSSC[C@H](NC(=O)[C@H](C)N)C(=O)N[C@@H](CCCCN)C(=O)NCC(=O)N[C@@H](C(C)C)C(=O)N[C@@H](Cc4ccccc4)C(=O)N[C@@H](CC(=O)O)C(=O)N[C@@H](C)C(=O)N3)NC2=O)C(=O)N[C@@H](CO)C(=O)N[C@@H](CC(=O)O)C(=O)N[C@@H](CCCCN)C(=O)N[C@@H](Cc2c[nH]cn2)C(=O)N[C@@H](CCCCN)C(=O)N[C@@H](Cc2c[nH]c3ccccc23)C(=O)N1)C(=O)O [rHWTX-I] (H-ACKGVFDACTPGKNECCPNRVCSDKHKWCKWKL-OH; disulfide 2-17, 9-22, 16-29)",hNav1.7 current reduced to (remaining current),human Nav1.7 (hNav1.7),33–36%
